In paper PMC5986797, “Laminin heparin-binding peptides bind to several growth factors and enhance diabetic wound healing” (Nature Communications, 2018):

Each substance was assayed on recombinant human laminin isoforms (–111, –211, –332, –411, –421, –511, and –521) (assay: ELISA: binding of full-length laminin isoforms to absorbed GFs and CXCL chemokines). Conditions: 50 nM GF coated, 10 nM laminin; signals greater than 0.1 indicate binding; n = 4.
Protocol: Ninety-six-well ELISA plates (med-binding, Greiner Bio-One) were coated with 50 nM GFs in 100 µL/well of phosphate-buffered saline (PBS) at 37 °C for more than 2 h. After blocking with 2% BSA solution containing PBS and 0.05% Tween 20 (PBS-T), 10 nM recombinant human laminin isoforms (–111, –211, –332, –411, –421, –511, and –521) (>95% purity tested by SDS-PAGE, BioLamina) in 100 µL/well PBS were added. Bound laminin was detected with 100 µL/well rabbit anti-human LAMC1 polyclonal antibody (Assay Biotech, Catalog No. C13072, 1:1000 dilution in PBS) or rabbit anti-human LAMA3 polyclonal antibody (Assay Biotech, Catalog No. C13066, 1:1000 dilution in PBS). After incubation with biotinylated anti-rabbit antibody for 60 min at room temperature (RT), HRP-conjugated streptavidin (Jackson ImmunoResearch) was added. After 60 min of incubation at RT, 50 μL of TMB substrate (Sigma-Aldrich) was added. The reactions were stopped by adding 25 μL of 2 N H2SO4. Subsequently, the absorbance at 450 nm was measured with a reference of 570 nm.

| Substance | binding to all tested laminin isoforms (ELISA, A450 nm) |
| --- | --- |
| BMP-4: bone morphogenetic protein, PeproTech | not |
| CXCL-12γ: C–X–C motif ligand (CXCL)-12γ, R&D systems | bound |
| FGF-1: fibroblast growth factor, PeproTech | did not |
| FGF-2: fibroblast growth factor, PeproTech | bound |
| FGF-18: fibroblast growth factor, PeproTech | bound |
| HB-EGF: heparin-binding epidermal growth factor, PeproTech | weakly bound |
| IGF-1: insulin-like growth factor, PeproTech | Neither IGF-1 nor IGF-2 displayed significant binding |
| IGF-2: insulin-like growth factor, PeproTech | Neither IGF-1 nor IGF-2 displayed significant binding |
| NT-3: neurotrophin, PeproTech | strong binding |
| PDGF-AA: platelet-derived growth factor, PeproTech | bound |
| PDGF-BB: platelet-derived growth factor, PeproTech | bound |
| βNGF: β-nerve growth factor, PeproTech | bound only weakly |

Same assay, conditions: isoforms other than laminin-332; 50 nM GF coated, 10 nM laminin; n = 4

| Substance | binding to the other laminin isoforms (ELISA, A450 nm) |
| --- | --- |
| CXCL-11: CXCL chemokine, PeproTech | not to the other isoforms |
| CXCL-12α: CXCL chemokine, PeproTech | not to the other isoforms |

Same assay, conditions: laminin-332; 50 nM GF coated, 10 nM laminin; n = 4

| Substance | binding to laminin-332 (ELISA, A450 nm) |
| --- | --- |
| CXCL-11: CXCL chemokine, PeproTech | bound weakly |
| CXCL-12α: CXCL chemokine, PeproTech | bound weakly |
